{"source": "paper PMC9017349", "about": "“Spiropyrimidinetriones: a Class of DNA Gyrase Inhibitors with Activity against Mycobacterium tuberculosis and without Cross-Resistance to Fluoroquinolones” (Antimicrobial Agents and Chemotherapy, 2022)", "system": "M. tuberculosis H37Rv", "test": "MIC against M. tuberculosis H37Rv in 7H9 medium with various supplements", "format": "cell-based, Mycobacterium tuberculosis", "details": "for MIC: Mycobacterium tuberculosis, H37RV; for fold more active than zoliflodacin against M. tuberculosis: H37Rv, across the MIC media", "key": {"[1]": {"details": "read-out: MIC, DPPC/Chol/BSA/TX"}}, "note": "Read-outs that look alike come from different tables or passages of the source.", "data": [{"compound": "CC1CN2c3c(cc4c(N5C(=O)OCC5CCO)noc4c3F)CC3(C(=O)NC(=O)NC3=O)C2C(C)O1", "note": "(centres unmarked) [Compound 1]", "values": [{"measurement": "MIC", "setting": "read-out: MIC, ADC/GLU/TW", "value": 3.9, "unit": "µM"}, {"measurement": "MIC", "setting": "read-out: MIC, DPPC/CAS/TX", "value": 6.2, "unit": "µM"}, {"measurement": "MIC", "setting": "[1]", "value": 9.4, "unit": "µM"}, {"measurement": "MIC", "setting": "read-out: MIC, GLU/BSA/TX", "value": 9.4, "unit": "µM"}, {"measurement": "MIC", "setting": "read-out: MIC, GLU/CAS/TX", "value": 4.7, "unit": "µM"}]}, {"compound": "CC1CN2c3c(cc4c(N5C(=O)OCC5CO)noc4c3F)CC3(C(=O)NC(=O)NC3=O)C2C(C)O1", "note": "(centres unmarked) [Compound 2]", "values": [{"measurement": "MIC", "setting": "read-out: MIC, ADC/GLU/TW", "value": 2, "unit": "µM"}, {"measurement": "MIC", "setting": "read-out: MIC, DPPC/CAS/TX", "value": 6.2, "unit": "µM"}, {"measurement": "MIC", "setting": "[1]", "value": 4.7, "unit": "µM"}, {"measurement": "MIC", "setting": "read-out: MIC, GLU/BSA/TX", "value": 6.2, "unit": "µM"}, {"measurement": "MIC", "setting": "read-out: MIC, GLU/CAS/TX", "value": 3.1, "unit": "µM"}]}, {"compound": "CC1CN2c3c(cc4c(N5CC(CO)OC5=O)noc4c3Cl)CC3(C(=O)NC(=O)NC3=O)C2C(C)O1", "note": "(centres unmarked) [Compound 3]", "values": [{"measurement": "MIC", "setting": "read-out: MIC, ADC/GLU/TW", "value": 2, "unit": "µM"}, {"measurement": "MIC", "setting": "read-out: MIC, DPPC/CAS/TX", "value": 6.2, "unit": "µM"}, {"measurement": "MIC", "setting": "[1]", "value": 4.7, "unit": "µM"}, {"measurement": "MIC", "setting": "read-out: MIC, GLU/BSA/TX", "value": 4.7, "unit": "µM"}, {"measurement": "MIC", "setting": "read-out: MIC, GLU/CAS/TX", "value": 2.3, "unit": "µM"}]}, {"compound": "CC1CN2c3c(cc4c(N5C(=O)OCC5CCCO)noc4c3Cl)CC3(C(=O)NC(=O)NC3=O)C2C(C)O1", "note": "(centres unmarked) [Compound 4]", "values": [{"measurement": "MIC", "setting": "read-out: MIC, ADC/GLU/TW", "value": 4.8, "unit": "µM"}, {"measurement": "MIC", "setting": "read-out: MIC, DPPC/CAS/TX", "value": 12, "unit": "µM"}, {"measurement": "MIC", "setting": "[1]", "value": 12, "unit": "µM"}, {"measurement": "MIC", "setting": "read-out: MIC, GLU/BSA/TX", "value": 12, "unit": "µM"}, {"measurement": "MIC", "setting": "read-out: MIC, GLU/CAS/TX", "value": 9.4, "unit": "µM"}]}, {"compound": "C[C@@H]1CN(c2noc3c(F)c4c(cc23)CC2(C(=O)NC(=O)NC2=O)[C@H]2[C@H](C)O[C@H](C)CN42)C(=O)O1", "note": "[Compound 5]", "values": [{"measurement": "fold more active than zoliflodacin against M. tuberculosis", "value": "about 2 fold"}, {"measurement": "MIC", "setting": "read-out: MIC, ADC/GLU/TW", "value": 2, "unit": "µM"}, {"measurement": "MIC", "setting": "read-out: MIC, DPPC/CAS/TX", "value": 12, "unit": "µM"}, {"measurement": "MIC", "setting": "[1]", "value": 6.2, "unit": "µM"}, {"measurement": "MIC", "setting": "read-out: MIC, GLU/BSA/TX", "value": 9.4, "unit": "µM"}, {"measurement": "MIC", "setting": "read-out: MIC, GLU/CAS/TX", "value": 4.7, "unit": "µM"}]}, {"compound": "CC1CN2c3c(cc4c(N5C(=O)OC6COCC65)noc4c3F)CC3(C(=O)NC(=O)NC3=O)C2C(C)O1", "note": "(centres unmarked) [Compound 6]", "values": [{"measurement": "MIC", "setting": "read-out: MIC, ADC/GLU/TW", "value": 0.98, "unit": "µM"}, {"measurement": "MIC", "setting": "read-out: MIC, DPPC/CAS/TX", "value": 4.7, "unit": "µM"}, {"measurement": "MIC", "setting": "[1]", "value": 2.3, "unit": "µM"}, {"measurement": "MIC", "setting": "read-out: MIC, GLU/BSA/TX", "value": 3.1, "unit": "µM"}, {"measurement": "MIC", "setting": "read-out: MIC, GLU/CAS/TX", "value": 1.6, "unit": "µM"}]}, {"compound": "CC1CN2c3c(cc4c(N5C(=O)OC(C)C5C)noc4c3F)CC3(C(=O)NC(=O)NC3=O)C2C(C)O1", "note": "(centres unmarked) [Compound 7]", "values": [{"measurement": "MIC", "setting": "read-out: MIC, ADC/GLU/TW", "value": 3.9, "unit": "µM"}, {"measurement": "MIC", "setting": "read-out: MIC, DPPC/CAS/TX", "value": 37, "unit": "µM"}, {"measurement": "MIC", "setting": "[1]", "value": 19, "unit": "µM"}, {"measurement": "MIC", "setting": "read-out: MIC, GLU/BSA/TX", "value": 25, "unit": "µM"}, {"measurement": "MIC", "setting": "read-out: MIC, GLU/CAS/TX", "value": 12, "unit": "µM"}]}, {"compound": "COCC1COC(=O)N1c1noc2c(F)c3c(cc12)CC1(C(=O)NC(=O)NC1=O)C1C(C)OC(C)CN31", "note": "(centres unmarked) [Compound 8]", "values": [{"measurement": "MIC", "setting": "read-out: MIC, ADC/GLU/TW", "value": 7.8, "unit": "µM"}, {"measurement": "MIC", "setting": "read-out: MIC, DPPC/CAS/TX", "value": 25, "unit": "µM"}, {"measurement": "MIC", "setting": "[1]", "value": 12, "unit": "µM"}, {"measurement": "MIC", "setting": "read-out: MIC, GLU/BSA/TX", "value": 25, "unit": "µM"}, {"measurement": "MIC", "setting": "read-out: MIC, GLU/CAS/TX", "value": 19, "unit": "µM"}]}, {"compound": "CC1CN2c3c(cc4c(N5C(=O)OCC5c5ncnn5C)noc4c3F)CC3(C(=O)NC(=O)NC3=O)C2C(C)O1", "note": "(centres unmarked) [Compound 9]", "values": [{"measurement": "MIC", "setting": "read-out: MIC, ADC/GLU/TW", "value": 16, "unit": "µM"}, {"measurement": "MIC", "setting": "read-out: MIC, DPPC/CAS/TX", "value": "> 50", "unit": "µM"}, {"measurement": "MIC", "setting": "[1]", "value": "> 50", "unit": "µM"}, {"measurement": "MIC", "setting": "read-out: MIC, GLU/BSA/TX", "value": "> 50", "unit": "µM"}, {"measurement": "MIC", "setting": "read-out: MIC, GLU/CAS/TX", "value": 37, "unit": "µM"}]}, {"compound": "CC1CN2c3c(cc4c(N5C(=O)OC6COCCC65)noc4c3F)CC3(C(=O)NC(=O)NC3=O)C2C(C)O1", "note": "(centres unmarked) [Compound 10]", "values": [{"measurement": "MIC", "setting": "read-out: MIC, ADC/GLU/TW", "value": 3.9, "unit": "µM"}, {"measurement": "MIC", "setting": "read-out: MIC, DPPC/CAS/TX", "value": 12, "unit": "µM"}, {"measurement": "MIC", "setting": "[1]", "value": 12, "unit": "µM"}, {"measurement": "MIC", "setting": "read-out: MIC, GLU/BSA/TX", "value": 12, "unit": "µM"}, {"measurement": "MIC", "setting": "read-out: MIC, GLU/CAS/TX", "value": 6.2, "unit": "µM"}]}, {"compound": "COCC1[C@@H](C)OC(=O)N1c1noc2c(F)c3c(cc12)CC1(C(=O)NC(=O)NC1=O)[C@H]1[C@H](C)O[C@H](C)CN31", "note": "(some centres unmarked) [Compound 11]", "values": [{"measurement": "MIC", "setting": "read-out: MIC, ADC/GLU/TW", "value": 31, "unit": "µM"}, {"measurement": "MIC", "setting": "read-out: MIC, DPPC/CAS/TX", "value": "> 50", "unit": "µM"}, {"measurement": "MIC", "setting": "[1]", "value": "> 50", "unit": "µM"}, {"measurement": "MIC", "setting": "read-out: MIC, GLU/BSA/TX", "value": "> 50", "unit": "µM"}, {"measurement": "MIC", "setting": "read-out: MIC, GLU/CAS/TX", "value": "> 50", "unit": "µM"}]}, {"compound": "CC1CN2c3c(cc4c(N5CC(c6ccccn6)OC5=O)noc4c3F)CC3(C(=O)NC(=O)NC3=O)C2C(C)O1", "note": "(centres unmarked) [Compound 12]", "values": [{"measurement": "MIC", "setting": "read-out: MIC, ADC/GLU/TW", "value": "> 50", "unit": "µM"}, {"measurement": "MIC", "setting": "read-out: MIC, DPPC/CAS/TX", "value": "> 50", "unit": "µM"}, {"measurement": "MIC", "setting": "[1]", "value": "> 50", "unit": "µM"}, {"measurement": "MIC", "setting": "read-out: MIC, GLU/BSA/TX", "value": "> 50", "unit": "µM"}, {"measurement": "MIC", "setting": "read-out: MIC, GLU/CAS/TX", "value": "> 50", "unit": "µM"}]}, {"compound": "CC1CN2c3c(cc4c(N5C(=O)OC6CCOCC65)noc4c3F)CC3(C(=O)NC(=O)NC3=O)C2C(C)O1", "note": "(centres unmarked) [Compound 13]", "values": [{"measurement": "MIC", "setting": "read-out: MIC, ADC/GLU/TW", "value": 1.9, "unit": "µM"}, {"measurement": "MIC", "setting": "read-out: MIC, DPPC/CAS/TX", "value": 12, "unit": "µM"}, {"measurement": "MIC", "setting": "[1]", "value": 4.7, "unit": "µM"}, {"measurement": "MIC", "setting": "read-out: MIC, GLU/BSA/TX", "value": 6.2, "unit": "µM"}, {"measurement": "MIC", "setting": "read-out: MIC, GLU/CAS/TX", "value": 4.7, "unit": "µM"}]}, {"compound": "C[C@@H]1CN2c3c(cc4c(-n5ncnc5NCCO)noc4c3F)CC3(C(=O)NC(=O)NC3=O)[C@H]2[C@H](C)O1", "note": "[Compound 14]", "values": [{"measurement": "fold more active than zoliflodacin against M. tuberculosis", "value": 16, "unit": "fold"}, {"measurement": "MIC", "setting": "read-out: MIC, ADC/GLU/TW", "value": 0.24, "unit": "µM"}, {"measurement": "MIC", "setting": "read-out: MIC, DPPC/CAS/TX", "value": 1.6, "unit": "µM"}, {"measurement": "MIC", "setting": "[1]", "value": 1.2, "unit": "µM"}, {"measurement": "MIC", "setting": "read-out: MIC, GLU/BSA/TX", "value": 1.2, "unit": "µM"}, {"measurement": "MIC", "setting": "read-out: MIC, GLU/CAS/TX", "value": 0.6, "unit": "µM"}]}, {"compound": "C[C@@H]1CN2c3c(cc4c(-n5ncnc5NCCN(C)C)noc4c3F)CC3(C(=O)NC(=O)NC3=O)[C@H]2[C@H](C)O1", "note": "[Compound 15]", "values": [{"measurement": "MIC", "setting": "read-out: MIC, ADC/GLU/TW", "value": 2, "unit": "µM"}, {"measurement": "MIC", "setting": "read-out: MIC, DPPC/CAS/TX", "value": 1.6, "unit": "µM"}, {"measurement": "MIC", "setting": "[1]", "value": 3.1, "unit": "µM"}, {"measurement": "MIC", "setting": "read-out: MIC, GLU/BSA/TX", "value": 1.6, "unit": "µM"}, {"measurement": "MIC", "setting": "read-out: MIC, GLU/CAS/TX", "value": 2.3, "unit": "µM"}]}]}
